Molecular target: T1, SHP2 protein (Homo sapiens, UniProt Q06124)
T1 sequence (Q06124 1-593): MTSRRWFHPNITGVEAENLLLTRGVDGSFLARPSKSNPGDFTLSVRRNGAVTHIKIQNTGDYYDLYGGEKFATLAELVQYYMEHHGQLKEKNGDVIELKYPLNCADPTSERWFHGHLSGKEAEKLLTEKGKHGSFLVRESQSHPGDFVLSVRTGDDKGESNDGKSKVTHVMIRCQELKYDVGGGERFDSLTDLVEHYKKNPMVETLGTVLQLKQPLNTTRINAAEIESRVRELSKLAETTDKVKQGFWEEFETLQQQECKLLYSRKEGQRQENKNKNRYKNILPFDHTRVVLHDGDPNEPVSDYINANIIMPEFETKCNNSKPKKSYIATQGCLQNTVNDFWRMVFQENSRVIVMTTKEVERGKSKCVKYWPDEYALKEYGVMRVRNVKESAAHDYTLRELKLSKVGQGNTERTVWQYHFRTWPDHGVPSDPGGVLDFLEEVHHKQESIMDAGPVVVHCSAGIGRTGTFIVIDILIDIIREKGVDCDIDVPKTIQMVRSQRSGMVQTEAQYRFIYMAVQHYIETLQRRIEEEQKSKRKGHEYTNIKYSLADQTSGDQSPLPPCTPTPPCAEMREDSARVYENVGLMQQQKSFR
Assay: Measurement of SHP2 protein degradation in NCI-H358 cells (western blotting)
Format: cell-based
Set-up: endogenous in cells; host or cells: NCI-H358
Settings: harvested after 24 hours
Method: H358 cells were treated with the synthesized Example compounds, and the amount of SHP2 protein present in the cells was measured using western blotting detection. The protocol for the experiment using H358 cells is as follows.
[Culture]H358 cells were resuspended in RPMI1640 with 25 mM HEPES (Hyclone, SH30255.01), 10% FBS (Hyclone, SV30207.02), 1% Penicillin-streptomycin (Welgene, LS 202-02) media, seeded at 3×10^5/mL in 12-well plates (1 mL each), and cultured for 24 hours.
[Compound treatment] Before compound treatment, the media was changed to 1 mL media, and then the 12-well plate was treated as follows. The 10 mM stock dissolved in DMSO was serially diluted 1/100 or 1/10 with the media, and the compound was treated to the cells at a final concentration of 0.001, 0.01, and 0.1 μM, and harvested after 24 hours. For the negative control group, DMSO diluted 1/1000 in the media was added (1 μL DMSO+999 μL media).
[Harvest]24 hours after compound treatment, each well was scraped with a cell lifter (SPL, 90040), pipetted with a 1 mL pipette, collected in a 1.5 mL microtube, and centrifuged (500 g, 5 min, 4° C.). The supernatant was removed, washed with PBS, and centrifuged again (500 g, 5 min, 4° C.). Afterwards, the supernatant was removed to prepare a pellet.
[Cell lysis and sample preparation] Lysis buffer was prepared as follows. RIPA buffer (Biosesang, RC2038-050-00)+0.5 mM PMSF (SIGMA, P7626)+1× Protease/Phosphatase Inhibitor (Cell signaling, 5872S) were added at 30 μL per tube, vortexed, and incubated on ice for 30 minutes. Afterwards, sonication was performed (10 sec pulse, 30 sec rest, 5 cycles, 70% amplification) and centrifugation was performed (15,000 g, 15 min, 4° C.), and only the supernatant was transferred to a microtube. A 96-well plate was diluted to 1/4 with 7.5 μL of RIPA buffer and 2.5 μL of sample, and 200 μL each was added after mixing A and B of the BCA Protein Assay Kit (iNtRON, 21071) in a ratio of 50:1. The plate was incubated at 37° C. for 30 minutes and left at room temperature for 10 minutes. After shaking for 10 seconds with a SYNERGY H1 microplate reader from BioTek, the absorbance was measured at 562 nm. The protein was quantified using the measured value to make a sample, which was then incubated at 70° C. for 10 minutes. The sample buffer used here was a mixture of NuPAGE or Bolt 4× sample buffer (Invitrogen) and each 10× sample reducing agent depending on the gel to be used, and RIPA buffer was used for protein dilution.
[Western blotting detection] Equal amounts of samples were loaded onto NuPAGE or Bolt Bis-tris 4-12% gradient gel and run (200 V, 35 min). This was transferred to […] NC membrane using Trans-blot Turbo (BIO-RAD) (1.3 A constant, 25 V limit, 15 min), and blocked with 5% skim milk/0.2% TBST for 45 min at room temperature. Anti-SHPTP2 Mouse (1:1,000 in 5% skim milk/0.2% TBST, size: 70 kDa, Santa cruz sc-7384) and Anti-GAPDH Rabbit (1:2,000 in 5% skim milk or 5% BSA/0.2% TBST, size: 37 kDa, CST #2118) were added and incubated overnight at 4° C. After washing three times with 0.2% TBST washing buffer for 5 minutes each, secondary antibodies Anti-Mouse IgG (1:5,000 in 5% skim milk/0.2% TBST, CST) and IRDye® 680RD Goat anti-Rabbit IgG Secondary Antibody (1:10,000 in 5% skim milk/0.2% TBST, LI-COR 926-68071) were added, and incubated on a rocker at room temperature for 45 minutes. The resultants were washed five times with 0.2% TBST washing buffer for 5 minutes each, and detected using LI-COR's Odyssey. GAPDH was detected with a 700 nm channel, and SHPTP2 was detected using SuperSignal West Pico PLUS Chemiluminescent Substrate.

Cc1ncsc1-c1ccc(CNC(=O)[C@@H]2C[C@@H](O)CN2C(=O)[C@@H](NC(=O)C2(F)CC2)C(C)(C)C)c(OC2CCN(CC3(O)CCN(c4nccc(Sc5cnc(N6CCC(C)(CN)CC6)cn5)c4Cl)CC3)CC2)c1 [Example 10, (2S,4R)—N-(2-((1-((1-(4-((5-(4-(aminomethyl)-4-methylpiperidin-1-yl)pyrazin-2-yl)thio)-3-chloropyridin-2-yl)-4-hydroxypiperidin-4-yl)methyl)piperidin-4-yl)oxy)-4-(4-methylthiazol-5-yl)benzyl)-1-((S)-2-(1-fluorocyclopropane-1-carboxamido)-3,3-dimethylbutanoyl)-4-hydroxypyrrolidine-2-carboxamide]
SHP2% degradation (0.01 μM): −8.0%
SHP2% degradation (0.1 μM): 93.9%

Cc1ncsc1-c1ccc(CNC(=O)[C@@H]2C[C@@H](O)CN2C(=O)[C@@H](NC(=O)C2(F)CC2)C(C)(C)C)c(O[C@H]2CC[C@H](C(=O)N3CC(Nc4cccc(Sc5cnc(N6CCC7(CC6)Cc6ncccc6[C@H]7N)cn5)c4Cl)C3)CC2)c1 [Example 15, (2S,4R)—N-(2-(((1R,4S)-4-(3-((3-((5-((S)-5-amino-5,7-dihydrospiro[cyclopenta[b]pyridine-6,4′-piperidin]-1′-yl)pyrazin-2-yl)thio)-2-chlorophenyl)amino)azetidine-1-carbonyl)cyclohexyl)oxy)-4-(4-methylthiazol-5-yl)benzyl)-1-((S)-2-(1-fluorocyclopropane-1-carboxamido)-3,3-dimethylbutanoyl)-4-hydroxypyrrolidine-2-carboxamide]
SHP2% degradation (0.01 μM): 93.5%
SHP2% degradation (0.1 μM): 99.6%

Cc1ncsc1-c1ccc(CNC(=O)[C@@H]2C[C@@H](O)CN2C(=O)[C@@H](NC(=O)C2(F)CC2)C(C)(C)C)c(O[C@H]2CC[C@H](C(=O)N3CC(Nc4nccc(Sc5cnc(N6CCC7(CC6)CO[C@@H](C)[C@H]7N)cn5)c4Cl)C3)CC2)c1 [Example 22, (2S,4R)—N-(2-(((1R,4S)-4-(3-((4-((5-((3S,4S)-4-amino-3-methyl-2-oxa-8-azaspiro[4.5]decan-8-yl)pyrazin-2-yl)thio)-3-chloropyridin-2-yl)amino)azetidine-1-carbonyl)cyclohexyl)oxy)-4-(4-methylthiazol-5-yl)benzyl)-1-((S)-2-(1-fluorocyclopropane-1-carboxamido)-3,3-dimethylbutanoyl)-4-hydroxypyrrolidine-2-carboxamide]
SHP2% degradation (0.01 μM): 95.7%
SHP2% degradation (0.1 μM): 97.1%

Cc1ncsc1-c1ccc(CNC(=O)[C@@H]2C[C@@H](O)CN2C(=O)[C@@H](NC(=O)C2(F)CC2)C(C)(C)C)c(O[C@H]2CC[C@H](C(=O)N3CCC(Nc4nccc(Sc5cnc(N6CCC7(CC6)CO[C@@H](C)[C@H]7N)cn5)c4Cl)CC3)CC2)c1 [Example 25, (2S,4R)—N-(2-(((1R,4S)-4-(4-((4-((5-((3S,4S)-4-amino-3-methyl-2-oxa-8-azaspiro[4.5]decan-8-yl)pyrazin-2-yl)thio)-3-chloropyridin-2-yl)amino)piperidine-1-carbonyl)cyclohexyl)oxy)-4-(4-methylthiazol-5-yl)benzyl)-1-((S)-2-(1-fluorocyclopropane-1-carboxamido)-3,3-dimethylbutanoyl)-4-hydroxypyrrolidine-2-carboxamide]
SHP2% degradation (0.01 μM): 94.2%
SHP2% degradation (0.1 μM): 97.0%

CC(=O)N[C@H](C(=O)N1C[C@H](O)C[C@H]1C(=O)NCc1ccc(-c2scnc2C)cc1O[C@H]1CC[C@H](C(=O)N2CC(Nc3cccc(Sc4cnc(N5CCC(C)(N)CC5)cn4)c3Cl)C2)CC1)C(C)(C)C [Example 28, (2S,4R)-1-((S)-2-acetamido-3,3-dimethylbutanoyl)-N-(2-(((1R,4S)-4-(3-((3-((5-(4-amino-4-methylpiperidin-1-yl)pyrazin-2-yl)thio)-2-chlorophenyl)amino)azetidine-1-carbonyl)cyclohexyl)oxy)-4-(4-methylthiazol-5-yl)benzyl)-4-hydroxypyrrolidine-2-carboxamide]
SHP2% degradation (0.01 μM): 86.9%
SHP2% degradation (0.1 μM): 98.5%

CC(=O)N[C@H](C(=O)N1C[C@H](O)C[C@H]1C(=O)NCc1ccc(-c2scnc2C)cc1O[C@H]1CC[C@H](C(=O)N2CC(Nc3cccc(Sc4cnc(N5CCC6(CC5)Cc5ncccc5[C@H]6N)cn4)c3Cl)C2)CC1)C(C)(C)C [Example 31, (2S,4R)-1-((S)-2-acetamido-3,3-dimethylbutanoyl)-N-(2-(((1R,4S)-4-(3-((3-((5-((S)-5-amino-5,7-dihydrospiro[cyclopenta[b]pyridine-6,4′-piperidin]-1′-yl)pyrazin-2-yl)thio)-2-chlorophenyl)amino)azetidine-1-carbonyl)cyclohexyl)oxy)-4-(4-methylthiazol-5-yl)benzyl)-4-hydroxypyrrolidine-2-carboxamide]
SHP2% degradation (0.01 μM): 76.3%
SHP2% degradation (0.1 μM): 99.4%

CC(=O)N[C@H](C(=O)N1C[C@H](O)C[C@H]1C(=O)NCc1ccc(-c2scnc2C)cc1O[C@H]1CC[C@H](C(=O)N2CC(N3CCc4c(Sc5cnc(N6CCC7(CC6)CO[C@@H](C)[C@H]7N)cn5)cccc43)C2)CC1)C(C)(C)C [Example 32, (2S,4R)-1-((S)-2-acetamido-3,3-dimethylbutanoyl)-N-(2-(((1R,4S)-4-(3-(4-((5-((3S,4S)-4-amino-3-methyl-2-oxa-8-azaspiro[4.5]decan-8-yl)pyrazin-2-yl)thio)indolin-1-yl)azetidine-1-carbonyl)cyclohexyl)oxy)-4-(4-methylthiazol-5-yl)benzyl)-4-hydroxypyrrolidine-2-carboxamide]
SHP2% degradation (0.01 μM): 54.4%
SHP2% degradation (0.1 μM): 98.5%

CC(=O)N[C@H](C(=O)N1C[C@H](O)C[C@H]1C(=O)NCc1ccc(-c2scnc2C)cc1O[C@H]1CC[C@H](C(=O)N2CCC(N3CCc4c(Sc5cnc(N6CCC7(CC6)CO[C@@H](C)[C@H]7N)cn5)cccc43)CC2)CC1)C(C)(C)C [Example 33, (2S,4R)-1-((S)-2-acetamido-3,3-dimethylbutanoyl)-N-(2-(((1R,4S)-4-(4-(4-((5-((3S,4S)-4-amino-3-methyl-2-oxa-8-azaspiro[4.5]decan-8-yl)pyrazin-2-yl)thio)indolin-1-yl)piperidine-1-carbonyl)cyclohexyl)oxy)-4-(4-methylthiazol-5-yl)benzyl)-4-hydroxypyrrolidine-2-carboxamide]
SHP2% degradation (0.01 μM): 96.6%
SHP2% degradation (0.1 μM): 99.1%

— patent US20260144788A1, “COMPOUND FOR SHP2 PROTEIN DEGRADATION AND MEDICAL USES THEREOF” (UBIX THERAPEUTICS, INC., priority 2022, published 2026)
